Experimental data as given in US20070128217A1 (priority 2003, published 2007).

Columns and labels:
[1] = system: antibodies in sera from SARS patients (sera 1a, 1b, 2, 6, 37, 62, London, SARS-yellow, SARS-green); format: binding, human; set-up: Binding of serum 6 to linear peptides of protein X1 of SARS-CoV Urbani / Binding of serum 37 to linear peptides of protein X1 of SARS-CoV Urbani / Binding of serum 6 to looped/cyclic peptide (PEPSCAN-ELISA) / Binding of serum 37 to looped/cyclic peptide (PEPSCAN-ELISA) / Binding of serum 37 to looped/cyclic peptides of protein X1 of SARS-CoV Urbani / Binding of serum 6 to linear peptides of protein X2 / Binding of serum 37 to linear peptides of protein X2 / Binding of serum 37 to looped/cyclic peptides of protein X2 of SARS-CoV Urbani / Binding of serum 6 to linear peptides of protein M of SARS-CoV Urbani / Binding of serum 37 to linear peptides of protein M of SARS-CoV Urbani / Binding of serum 6 to looped/cyclic peptides of protein M of SARS-CoV Urbani / Binding of serum 37 to looped/cyclic peptides of protein M of SARS-CoV Urbani / Binding of serum 6 to linear peptides of protein X3 of SARS-CoV Urbani / Binding of serum 37 to linear peptides of protein X3 of SARS-CoV Urbani / Binding of serum 37 to looped/cyclic peptides of protein X3 of SARS-CoV Urbani / Binding of serum 6 to linear peptides of protein X4 of SARS-CoV Urbani / Binding of serum 37 to linear peptides of protein X4 of SARS-CoV Urbani / Binding of serum 37 to looped/cyclic peptides of protein X4 of SARS-CoV Urbani / Binding of serum 6 to linear peptides of protein X5 of SARS-CoV Urbani / Binding of serum 37 to linear peptides of protein X5 of SARS-CoV Urbani / Binding of serum 37 to looped/cyclic peptides of protein X5 of SARS-CoV Urbani / Binding of serum 6 to linear peptides of protein N of SARS-CoV Urbani / Binding of serum 37 to linear peptides of protein N of SARS-CoV Urbani / Binding of serum 6 to linear peptide (PEPSCAN-ELISA) / Binding of serum 1a to looped/cyclic peptides of protein N of SARS-CoV Urbani / Binding of serum 1b to looped/cyclic peptides of protein N of SARS-CoV Urbani / Binding of serum 2 to looped/cyclic peptides of protein N of SARS-CoV Urbani / Binding of serum 6 to looped/cyclic peptides of protein N of SARS-CoV Urbani / Binding of serum 37 to looped/cyclic peptides of protein N of SARS-CoV Urbani / Binding of serum 62 to looped/cyclic peptides of protein N of SARS-CoV Urbani / Binding of serum London to looped/cyclic peptides of protein N of SARS-CoV Urbani / Binding of serum SARS-green to looped/cyclic peptides of protein N of SARS-CoV Urbani: unit not given here
[2] = system: control sera (pooled serum of ten healthy LUMC hospital workers; commercial negative donor pooled serum from the Dutch bloodbank); format: binding, human; set-up: Binding of Control serum LUMC to linear peptides / Binding of Control serum Blood-bank to linear peptides / Binding of Control serum LUMC to looped peptides / Binding of Control Serum Blood-Bank to Looped peptides / Binding of Control serum LUMC to linear peptides of the protein M of SARS-CoV Urbani / Binding of Control serum Blood-bank to linear peptides of the protein M of SARS-CoV Urbani / Binding of Control serum LUMC to looped peptides of the protein M of SARS-CoV Urbani / Binding of Control Serum Blood-Bank to Looped peptides of the protein M of SARS-CoV Urbani: unit not given here
[3] = system: rabbit serum obtained by immunizing a rabbit with the SARS-CoV strain Frankfurt 1; format: binding; set-up: Binding of a rabbit serum to linear peptides / Binding of a rabbit serum to looped peptides / Rabbit serum linear peptides / Rabbit serum looped peptides / Binding of a rabbit serum to linear peptides of protein N of SARS-CoV Urbani (Rabbit serum linear peptides) / Binding of a rabbit serum to looped/cyclic peptides of protein N of SARS-CoV Urbani (Rabbit serum looped peptides): unit not given here

| Sequence | Binding of serum 1a to linear peptides of protein X4 of SARS-CoV Urbani [1] | Binding of serum 1a to looped/cyclic peptides of protein X4 of SARS-CoV Urbani [1] | Binding of serum 1b to linear peptides of protein X4 of SARS-CoV Urbani [1] | Binding of serum 1b to looped/cyclic peptides of protein X4 of SARS-CoV Urbani [1] | Binding of serum 2 to linear peptides of protein X4 of SARS-CoV Urbani [1] | Binding of serum 2 to looped/cyclic peptides of protein X4 of SARS-CoV Urbani [1] | Binding of serum 6 to linear peptides of protein X4 of SARS-CoV Urbani [1] | Binding of serum 6 to looped/cyclic peptides of protein X4 of SARS-CoV Urbani [1] | Binding of serum 37 to linear peptides of protein X4 of SARS-CoV Urbani [1] | Binding of serum 37 to looped/cyclic peptides of protein X4 of SARS-CoV Urbani [1] | Binding of serum 62 to linear peptides of protein X4 of SARS-CoV Urbani [1] | Binding of serum 62 to looped/cyclic peptides of protein X4 of SARS-CoV Urbani [1] | Binding of serum London to linear peptides of protein X4 of SARS-CoV Urbani [1] | Binding of serum London to looped/cyclic peptides of protein X4 of SARS-CoV Urbani [1] | Binding of serum SARS-green to linear peptides of protein X4 of SARS-CoV Urbani [1] | Binding of serum SARS-green to looped/cyclic peptides of protein X4 of SARS-CoV Urbani [1] | Binding of Control Serum Blood-Bank to Looped peptides [2] | Binding of Control serum Blood-bank to linear peptides [2] | Binding of Control serum LUMC to linear peptides [2] | Binding of Control serum LUMC to looped peptides [2] | further results |
| --- | --- | --- | --- | --- | --- | --- | --- | --- | --- | --- | --- | --- | --- | --- | --- | --- | --- | --- | --- | --- | --- |
| RARSVSPKLFIRQEE | 0.8 | 0.8 | 0.6 | 0.7 | 0.4 | 0.6 | 0.6 | 0.8 | 0.7 | 0.7 | 0.8 | 0.7 | 0.8 | 0.5 | 0.6 | 0.7 | 0.7 | 0.6 | 0.5 | 0.8 | Binding of serum SARS-yellow to linear peptides of protein X4 of SARS-CoV Urbani [1]: 0.1; Binding of serum SARS-yellow to looped/cyclic peptides of protein X4 of SARS-CoV Urbani [1]: 0.7; Recognition of the peptide by the rabbit serum [3]: recognized |
| LLFVTIYSHLLLVAA | – | – | – | – | – | – | – | – | – | – | – | – | – | – | – | – | 0.4 | 0.5 | 0.4 | 0.6 | Binding of serum 1a to linear peptides of protein X1 of SARS-CoV Urbani [1]: 0.7; Binding of serum 1a to looped/cyclic peptide (PEPSCAN-ELISA) [1]: 0.4; Binding of serum 1b to linear peptides of protein X1 of SARS-CoV Urbani [1]: 0.2; Binding of serum 1b to looped/cyclic peptide (PEPSCAN-ELISA) [1]: 0.3; Binding of serum 2 to linear peptides of protein X1 of SARS-CoV Urbani [1]: 0.5; Binding of serum 2 to looped/cyclic peptide (PEPSCAN-ELISA) [1]: 0.3; Binding of serum 6 to linear peptides of protein X1 of SARS-CoV Urbani [1]: 0.4; Binding of serum 6 to looped/cyclic peptide (PEPSCAN-ELISA) [1]: 0.2; Binding of serum 37 to linear peptides of protein X1 of SARS-CoV Urbani [1]: 0.6; Binding of serum 37 to looped/cyclic peptide (PEPSCAN-ELISA) [1]: 0.4; Binding of serum 62 to linear peptides of protein X1 of SARS-CoV Urbani [1]: 0.5; Binding of serum 62 to looped/cyclic peptide (PEPSCAN-ELISA) [1]: 0.5; Binding of serum London to linear peptides of protein X1 of SARS-CoV Urbani [1]: 0.2; Binding of serum London to looped/cyclic peptide (PEPSCAN-ELISA) [1]: 0.2; Binding of serum SARS-green to linear peptides of protein X1 of SARS-CoV Urbani [1]: 0.3; Binding of serum SARS-green to looped/cyclic peptide (PEPSCAN-ELISA) [1]: 0.2; Binding of serum SARS-yellow to linear peptides of protein X1 of SARS-CoV Urbani [1]: 0.3; Binding of serum SARS-yellow to looped/cyclic peptide (PEPSCAN-ELISA) [1]: 0.4; Binding of a rabbit serum to linear peptides [3]: 0.1; Binding of a rabbit serum to looped peptides [3]: 0.5 |
| SVSPKLFIRQEEVQQ | 0.7 | 0.7 | 0.5 | 0.6 | 0.3 | 0.6 | 0.5 | 0.4 | 0.7 | 0.7 | 0.7 | 0.6 | 0.6 | 0.3 | 0.4 | 0.7 | 0.4 | 0.6 | 0.3 | 0.7 | Binding of serum SARS-yellow to linear peptides of protein X4 of SARS-CoV Urbani [1]: 0.3; Binding of serum SARS-yellow to looped/cyclic peptides of protein X4 of SARS-CoV Urbani [1]: 0.4; Rabbit serum linear peptides [3]: 0.4; Rabbit serum looped peptides [3]: 0.3 |
